# Source: PMC8280143, “A novel dephosphorylation targeting chimera selectively promoting tau removal in tauopathies” (Signal Transduction and Targeted Therapy, 2021)
# Entries after “also recorded” stand apart in the source; their conditions may differ.
# Assays:
# [1] = system: primary rat hippocampal neurons; experiment: Cell penetrability assessment in cultured primary hippocampal neurons; format: in vitro ADME; details: FITC-labeled DEPTAC 100 μM, 24 h, fixed; laser-scanning microscopy (fluorescence)
# Method: Primary hippocampal neurons were prepared from E12–E15 days SD rat embryos. Briefly, pregnant rats were acutely executed, hippocampus was dissected on ice and gently minced in DME/F12 (Hyclone) then suspended in 0.125% (vol/vol) trypsin solution at 37 °C for 20 min. Enzymatic activity was stopped by fetal bovine serum. Neurons were initially kept in 10% FBS-containing DME/F12 for 4–6 h, and subsequently cultured in Neurobasal (Hyclone) with 2% B27, 1% glutamax and 1% penicillin–streptomycin (Thermo Fisher Scientific) in dishes pre-coated with 100 μg/mL poly-D-lysine. Serum was gradually removed by replacing half of the medium for each time within the following 2 days. Especially, to inhibit the proteasome-dependent proteolysis, the cultured hippocampal neurons were treated with 5 μM MG132 for 5 h before harvest.
# FITC-labeled DEPTAC (100 μM) was dissolved in sterilized water, and administrated into the medium of cultured primary rat hippocampal neurons for 24 h. Neurons were fixed with 4% paraformaldehyde, co-stained with DAPI (Beyotime), and then washed with PBS for 3 × 5 min. FITC was observed under a laser-scanning microscopy (Zeiss).
# neurons = experiment: Neuron penetrability in vivo; parameters: species or system mouse; details: Supplementary Fig. S1a; 10 mM FITC-labeled or unlabeled-DEPTAC, C57BL/6 mice
# Method: (§1) For 2-month male C57BL/6 mice, 10 mM FITC-labeled or unlabeled-DEPTAC were directly injected through the tail vein or lateral ventricle for the evaluation of BBB-penetrability. For 9-month 3×Tg AD mice or Tau368 (20–30 g body weight), unlabeled-DEPTAC (5 mM, 1 μL for each time) was delivered for once into the lateral ventricle through direct stereotaxic injection, or repeatedly administrated through guiding cannulas (RWD, Shenzhen, China) implanted into the lateral ventricle once every 3 days for a consecutive month to test its dephosphorylation efficiency. Mice were restricted in a custom designed device and stayed awake during drug administration, and sacrificed at 24 h post the single or last DEPTAC administration.
# HEK293(hTau) cells = experiment: CCK8 cell viability assay; format: cell-based, human; details: to 200 μM, 24 h; normalized to 0-μM group; F(4, 25) = 1.47, P = 0.24
# Method: HEK293 cells with stable expression of wild-type full-length human tau (term as HEK293(hTau) cells), were cultured in DMEM (Hyclone, SH30022.01) containing 10% fetal bovine serum (Biological Industries, 04–001-1ACS) and […] G418 (Thermo Fisher Scientific, 10,131,027) under 5% CO2, 37 °C.
# HEK293(hTau) cells were administrated with increasing concentration of DEPTAC for 24 h. About 5000 cells were dispensed into each well of a 96-well plate pre-incubated in a humidified incubator under 37 °C, 5% CO2. A total volume of 10 μL CCK-8 solution was delivered into each well of the plate. The plate was incubated for 1–4 h, and the light absorbance was measured at 450 nm using a microplate reader (BioTek-Synergy2). Cell viability (V) was evaluated by the formula: V = (Ad – A0) / (Av – A0) × 100%, where Ad and Av was the absorbance of DEPTAC-treated and vehicle-treated cells, respectively. A0 was the absorbance of wells with only culture medium and CCK8.
# [2] = system: human tau N-terminal 1–368 fragment (hTau-N368); experiment: Hippocampal phosphorylated and total tau in dox-treated Tau368 mice; format: in vivo, mouse
# Method: Mice weighting 20–30 g were anesthetized with 1% pentobarbital sodium (35 mg/kg), and fixed in a stereotaxic instrument (RWD). The scalp was sterilized with iodophors and 75% ethanol, and incised along the skull midline. Holes were drilled. Adeno-associated virus or DEPTAC was injected into the dorsal DG (posterior 1.9 mm, lateral ±1.1 mm from the bregma, ventral −2.0 from the skull) or lateral ventricle (posterior 0.22 mm, lateral ±1.0 mm from the bregma, ventral −2.5 from the skull), respectively, using an automatic microinjection system (World Precision Instruments, USA) at a rate of 0.05 μL/min. The needle syringe was left in place for 5 min before withdrawal. The skin was sutured and sterilized with iodophors. Mice were placed on thermos tank for analepsia.
# as §1
# Cultured cells or hippocampus tissues were collected on ice, and homogenized with RIPA lysis buffer containing 50 mM Tris-HCl, 100 mM NaCl, 1% Triton X-100, 5 mM EDTA, and 1:100 PMSF, and then centrifuged at 12,000 × g for 20 min. The supernatant was collected for the analysis of soluble proteins. In some experiments, the pellets were further incubated with 8% SDS buffer at 37 °C and then ultrasound for 60 times to reach a complete resuspension for the analysis of insoluble tau. Protein concentration was measured through BCA assays (Thermo Fisher). Equal amount of protein from each sample were separated in SDS-PAGE gels, and then transferred onto nitrocellulose or 0.22 μm polyvinylidene fluoride membranes (Merck Millipore). The membranes were blocked with 5% BSA, and incubated in turn with primary and horseradish peroxidase-conjugated secondary antibodies: pS199-Tau (44734G, Invitrogen, 1:2000), pT205-Tau (11108-1, Signalway, 1:2000), pS396-Tau (11102, Signalway, 1:2000), pS404-Tau (11112, Signalway, 1:2000), AT8 (MN1020, Thermo Fisher, 1:1000), Tau5 (ab80579, Abcam, 1:1000), Tau46 (T9450, Sigma, 1:1000), PP2A-Bα (4953, Cell signaling, 1:1000), Phospho-Ser/Thr (ab17464, Abcam1:1000), Ubiquitin (ab7254, Abcam, 1:1000), MAP2 (AB5622, Millipore, 1:2000), hTau-N368 (a generous gift from Prof. Keqiang Ye, Emory University School of Medicine, 1:1000), DEPTAC (developed by Daian Biotechnology, Wuhan, China, 1:500), β-actin (ab6276, Abcam, 1:2000). HRP-conjugated goat anti-rabbit IgG (A0208, Beyotime, 1:3000), HRP-conjugated goat anti-mouse IgG (A0216, Beyotime, 1:3000). Blots were visualized using ECL luminol reagent (P0018FS, Beyotime), and quantified using ImageJ software.
# [3] = system: human tau N-terminal 1–368 fragment (hTau-N368); experiment: as above; format: in vivo, mouse; details: 5 mM, i.c.v.
# [4] = DEPTAC for a consecutive month after stopping dox, **p < 0.01, n = 3 mice
# [5] = dox kept on, DEPTAC i.c.v. by guiding cannula once every three days for a consecutive month, 10 μg total protein, *p < 0.05, n = 3–4
# [6] = hippocampus of Tau368 mice, 24 h of post-DEPTAC administration
substance,measurement,setting,value
"(1) YQQYQDATADEQG, originates from the porcine β-tubulin 422–434 for recognizing and binding tau proteins.[5],[6] (2) GSGS, a linker for increasing the flexibility of the peptide.[15] (3) KKVAVVRTPPKSP, for recruiting PP2A-Bα,[16] and (4) RRRRRRRR [DEPTAC, DEPhosphorylation TArgeting Chimera; 38 amino acid residues, C185H314N72O56]",neuron penetrability in vitro,[1],high neuron penetrability; also recorded: High cell penetrability
same,neuron penetrability in vivo,neurons,high neuron penetrability
same,cytotoxicity (CCK8),HEK293(hTau) cells,No cytotoxicity
same,hippocampal phospho-tau after stopping the dox,[2]; [4],reduced; also recorded: downregulated
same,hippocampal total tau after stopping the dox,[2]; [4],reduced; also recorded: downregulated
same,degree of tau reduction by DEPTAC,"[2]; discussion, compared with tau knock-out or siRNA knock-down",far less than tau knock-out or siRNA-mediated knock-down
same,"hippocampal phospho-tau, dox kept on",[2]; [5],significantly reduced; also recorded: effectively facilitated the dephosphorylation
same,"hippocampal total tau, dox kept on",[2]; [5],significantly reduced; also recorded: effectively facilitated the dephosphorylation as well as the degradation of tau
same,hippocampal phosphorylated tau,"[2]; dox-treated Tau368 mice, 5 mM, i.c.v., for a consecutive month / for once, 12–72 h post injection, n = 3–4",effective in reducing; also recorded: reduced phosphorylated and total tau prominently
same,RIPA lysis buffer-insoluble tau,[2]; [6],tend to be decreased
same,RIPA lysis buffer-soluble tau,[2]; [6],tend to be decreased
same,time post injection of tau reduction,[3],12 to 72 h
same,hippocampal total tau,"[3]; for a consecutive month / for once, 12–72 h post injection, n = 3–4",effective in reducing; also recorded: reduced phosphorylated and total tau prominently
